# Assays:
# [1] = tested on: MHC class I on EwS cell lines; assay: flow cytometry of MHC class I on EwS cell lines; type: cell-based, human; conditions: IFN-γ 100U/ml, 24 h; W6/32 and BB7.2 mAbs
# [2] = tested on: β1i/LMP2, β5i/LMP7 and β2i/PSMB10 in SK-N-MC^A*02:01 and other EwS cell lines; assay: Western blot of immunoproteasome subunits in EwS cell lines; type: cell-based, human; conditions: IFN-γ 100U/ml, 24 h
substance,measurement,setting,value
IFN-γ: inflammatory cytokine used to treat EwS cell lines and tumors,MHC class I expression,[1],induced MHC class I upregulation
same,immunoproteasome subunit expression,[2],induced de novo expression of immunoproteasome subunits
